Patent US11352322B2, “Cyclopropyl-amide compounds as dual LSD1/HDAC inhibitors” (Jubilant Epicore LLC, priority 2016, dated 2022)
Structures can show the parent of a compound that is named as a salt. Where two headings read alike, the source gives them in different places.

Tests used:
[1] = Metabolic stability in liver microsomes, MLM; settings: 1 μM, NADPH
Description: (§1) The microsomal suspension was prepared by adding liver microsomes to 100 mM potassium phosphate buffer (pH7.4) to give a final protein concentration of 0.5 mg/mL. The stock solution of NCE (10 mM in DMSO) was added to the microsomes to provide a final concentration of 1 μM. […] Samples were vortexed and centrifuged at 5,000 rpm for 10 min to remove proteins. Supernatant were analyzed on LC-MS/MS.

[2] = molecular target: LSD1 (Homo sapiens (Human), UniProt O60341); assay: TR-FRET Assay for LSD1
Description: TR-FRET Assay for LSD1 (Perkin Elmer)
Tranylcypromine (TCP), LSD1 inhibitor was procured from Selleckchem. […] Stop Solution containing 300 μM tranylcypromine in 1× LANCE Detection Buffer was added to the wells and incubated for 5 min at RT. Then, Detection mix containing 2 nM Eu-Ab and 50 nM ULight-Streptavidin in 1× LANCE Detection Buffer was prepared and added to the reaction mix. This mixture was incubated for 1 hour at room temperature.

[3] = tested on: MM1S; assay: Anticancer activity: Alamar Blue assay, MM1S; format: cell-based; settings: Homo sapiens, MM1.S, read-out: MM1S EC50
[4] = molecular target: HDAC6 human recombinant enzyme (Homo sapiens (Human), UniProt Q9UBN7); assay: Histone Deacetylase Assay (BPS Biosciences), HDAC6; format: biochemical
Description: Histone Deacetylase Assay (BPS Biosciences)
Histone deacetylase assay was done as per manufacturer's instructions.

[5] = Metabolic stability in liver microsomes, HLM; settings: 1 μM, NADPH
Description: as §1

Chain of HDAC6 human recombinant enzyme (Q9UBN7 whole entry): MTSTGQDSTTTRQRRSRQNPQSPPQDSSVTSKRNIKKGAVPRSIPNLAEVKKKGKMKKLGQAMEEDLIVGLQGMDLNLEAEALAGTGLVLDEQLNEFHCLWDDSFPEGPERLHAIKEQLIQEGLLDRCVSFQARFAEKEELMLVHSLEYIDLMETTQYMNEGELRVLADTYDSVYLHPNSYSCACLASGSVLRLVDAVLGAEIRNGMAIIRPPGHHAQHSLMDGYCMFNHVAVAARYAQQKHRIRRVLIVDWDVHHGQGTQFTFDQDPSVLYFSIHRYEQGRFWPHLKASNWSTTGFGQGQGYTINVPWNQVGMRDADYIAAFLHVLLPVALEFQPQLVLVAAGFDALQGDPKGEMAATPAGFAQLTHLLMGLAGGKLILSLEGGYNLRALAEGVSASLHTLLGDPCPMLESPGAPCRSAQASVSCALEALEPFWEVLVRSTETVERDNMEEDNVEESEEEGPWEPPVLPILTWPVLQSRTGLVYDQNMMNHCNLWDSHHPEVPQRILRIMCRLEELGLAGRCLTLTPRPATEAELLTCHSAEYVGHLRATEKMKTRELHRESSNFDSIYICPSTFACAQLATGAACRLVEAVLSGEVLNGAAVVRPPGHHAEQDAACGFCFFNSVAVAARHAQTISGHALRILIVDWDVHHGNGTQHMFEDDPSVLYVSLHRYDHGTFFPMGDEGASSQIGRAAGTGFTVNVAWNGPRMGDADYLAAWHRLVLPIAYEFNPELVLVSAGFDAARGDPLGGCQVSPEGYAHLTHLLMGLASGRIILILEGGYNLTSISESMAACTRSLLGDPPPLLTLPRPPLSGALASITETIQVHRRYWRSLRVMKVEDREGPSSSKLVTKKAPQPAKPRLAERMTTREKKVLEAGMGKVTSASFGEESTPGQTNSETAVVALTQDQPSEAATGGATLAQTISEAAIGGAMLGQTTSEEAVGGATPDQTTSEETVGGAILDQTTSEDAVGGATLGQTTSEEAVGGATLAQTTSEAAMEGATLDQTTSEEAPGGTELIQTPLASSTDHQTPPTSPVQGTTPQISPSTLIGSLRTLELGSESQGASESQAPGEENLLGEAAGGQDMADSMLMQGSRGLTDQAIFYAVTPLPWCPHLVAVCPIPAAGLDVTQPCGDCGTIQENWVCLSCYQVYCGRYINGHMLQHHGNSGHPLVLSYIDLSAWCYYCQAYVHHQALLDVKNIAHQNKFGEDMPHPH

Row | Structure (SMILES) | Metabolic stability MLM % remaining in 30 min [1] | IC50 ([2]; read-out: LSD1 IC50) [nM] | EC50 [3] [nM] | IC50 [4] [nM] | Metabolic stability HLM % remaining in 30 min [5] | EC50 ([3]; MM1S cells) [nM] | IC50 [2] [nM]
1 | O=C(NO)c1ccc(OCCN2CCC(CNC3CC3c3ccccc3)CC2)cc1 (stereo not shown) [Example 99, N-hydroxy-4-(2-(4-(((2-phenylcyclopropyl)amino)methyl)piperidin-1-yl)ethoxy)benzamide TFA Salt] | 76% | 4 | 27 | 51 | 63% | – | –
2 | O=C(NO)c1ccc(CCCN2CC(CNC3CC3c3ccc(-c4ccc(F)cc4)cc3)C2)cc1 (stereo not shown) [Example 58, 4-(3-(3-(((2-(4′-fluoro-[1,1′-biphenyl]-4-yl)cyclopropyl)amino)methyl)azetidin-1-yl)propyl)-N-hydroxybenzamide TFA Salt] | 91% | 25 | 15 | 43 | 85% | – | –
3 | CC(NC1CC1c1ccccc1)[C@H]1CC[C@H](C(=O)NO)CC1 (stereo partly drawn) [Example 34, (1S,4R)—N-hydroxy-4-((1S)-1-((2-phenylcyclopropyl)amino)ethyl)cyclohexanecarboxamide TFA Salt] | 79% | 31 | – | > 1000 | 90% | 94 | –
4 | O=C(NO)c1ccc(CN2CCc3ccc(CNC4CC4c4ccc(F)cc4)cc3C2)cc1 (stereo not shown) [Example 79, 4-((7-(((2-(4-fluorophenyl)cyclopropyl)amino)methyl)-3,4-dihydroisoquinolin-2(1H)-yl)methyl)-N-hydroxybenzamide TFA Salt] | 6% | 79 | 39 | 24 | 18% | – | –
5 | Nc1ccccc1NC(=O)c1ccc(CN2CCC(CN[C@@H]3C[C@H]3c3ccccc3)CC2)cc1 [Example 140, N-(2-aminophenyl)-4-((4-((((1R,2S)-2-phenylcyclopropyl)amino)methyl)piperidin-1-yl)methyl)benzamide TFA Salt] | 83% | 2 | 2 | > 10000 | 85% | – | –
6 | O=C(NO)c1coc(CCCN2CCC(CNC3CC3c3ccccc3)CC2)n1.O=C(O)C(F)(F)F (stereo not shown) [Example 113, N-hydroxy-2-(3-(4-(((2-phenylcyclopropyl)amino)methyl)piperidin-1-yl)propyl)oxazole-4-carboxamide TFA Salt] | 76% | – | – | > 10000 | 78% | > 10000 | 26
7 | Nc1ccccc1NC(=O)c1cnc(NCCN2CCC(CNC3CC3c3ccc(F)cc3)CC2)nc1 (stereo not shown) [Example 150] | >95/>95% | 16 | – | > 10000 | >95/>95% | 411 | –
8 | O=C(NO)c1ccc(C(=O)NCCN2CCC(CNC3CC3c3ccc(F)c(F)c3)CC2)cc1 (stereo not shown) [Example 90, N1-(2-(4-(((2-(3,4-difluorophenyl)cyclopropyl)amino)methyl)piperidin-1-yl)ethyl)-N4-hydroxyterephthalamide TFA Salt] | 93% | 21 | 339 | 170 | 80% | – | –
9 | O=C(NO)c1ccc(OCCNC2CC2c2ccccc2)cc1 (stereo not shown) [Example 95, N-hydroxy-4-(2-((2-phenylcyclopropyl)amino)ethoxy)benzamide TFA Salt] | 55% | 33 | 144 | 350 | 75% | – | –
10 | Nc1ccccc1NC(=O)c1ccc(CCCN2CC3(CC(NC4CC4c4ccccc4)C3)C2)cc1 (stereo not shown) [Example 127, N-(2-aminophenyl)-4-(3-(6-((2-phenylcyclopropyl)amino)-2-azaspiro[3.3]heptan-2-yl)propyl)benzamide TFA Salt] | 19% | 764 | – | > 10000 | 17% | 126 | –
11 | O=C(NO)c1ccc(/C=C/C(=O)N2CCC(CNC3CC3c3ccc(-c4cncnc4)cc3)CC2)cc1 (stereo not shown) [Example 117, (E)-N-hydroxy-4-(3-oxo-3-(4-(((2-(4-(pyrimidin-5-yl)phenyl)cyclopropyl)amino)methyl)piperidin-1-yl)prop-1-en-1-yl)benzamide TFA Salt] | 82% | 46 | 460 | 74 | 80% | – | –
12 | Cn1cc(-c2ccc(C3CC3NCC3CCN(Cc4ccc(C(=O)Nc5ccccc5N)cc4)CC3)cc2)ccc1=O (stereo not shown) [Example 141, N-(2-aminophenyl)-4-((4-(((2-(4-(1-methyl-6-oxo-1,6-dihydropyridin-3-yl)phenyl)cyclopropyl)amino)methyl)piperidin-1-yl)methyl)benzamide TFA Salt] | 75% | 30 | 194 | > 10000 | 88% | – | –
13 | O=C(NO)c1ccc(/C=C/C(=O)N2CCC(CN[C@H]3C[C@@H]3c3ccc(F)cc3)CC2)cc1 [Example 115, 4-((E)-3-(4-((((1S,2R)-2-(4-fluorophenyl)cyclopropyl)amino)methyl)piperidin-1-yl)-3-oxoprop-1-en-1-yl)-N-hydroxybenzamide TFA Salt] | 45% | 65 | – | 53 | 75% | 10 | –
14 | O=C(NO)c1ccc(/C=C/C(=O)N2CC(CNC3CC3c3ccc(F)cc3)C2)cc1 (stereo not shown) [Example 118, (E)-4-(3-(3-(((2-(4-fluorophenyl)cyclopropyl)amino)methyl)azetidin-1-yl)-3-oxoprop-1-en-1-yl)-N-hydroxybenzamide TFA Salt] | 76% | 37 | 21 | 58 | 77% | – | –
15 | Nc1ccccc1NC(=O)c1ccc(OCCNC2CC2c2ccc(F)cc2)cc1 (stereo not shown) [Example 148, N-(2-aminophenyl)-4-(2-((2-(4-fluorophenyl)cyclopropyl)amino)ethoxy) benzamide TFA Salt] | 34% | 24 | – | > 10000 | 46% | 40 | –
16 | O=C(NO)c1ccc(CCCN2CCC(NC3CC3c3ccccc3)CC2)cc1 (stereo not shown) [Example 44, N-hydroxy-4-(3-(4-((2-phenylcyclopropyl)amino)piperidin-1-yl)propyl)benzamide TFA Salt] | 55% | 13 | 45 | 65 | 71% | – | –
17 | Nc1ccccc1NC(=O)c1ccc(/C=C/C(=O)N2CC(CNC3CC3c3ccc(F)cc3)C2)cc1 (stereo not shown) [Example 157, (E)-N-(2-aminophenyl)-4-(3-(3-(((2-(4-fluorophenyl)cyclopropyl)amino)methyl)azetidin-1-yl)-3-oxoprop-1-en-1-yl)benzamide TFA Salt] | 63% | 58 | 167 | > 10000 | 53% | – | –
18 | O=C(NO)c1ccc(CCC(=O)N2CCC(CNC3CC3c3ccccc3)CC2)cc1 (stereo not shown) [Example 82, N-hydroxy-4-(3-oxo-3-(4-(((2-phenylcyclopropyl)amino)methyl)piperidin-1-yl)propyl)benzamide TFA Salt] | 72% | 94 | 619 | 35 | 77% | – | –
19 | Nc1ccccc1NC(=O)c1ccc(/C=C/C(=O)N2CCC(CNC3CC3c3ccc(F)cc3)CC2)cc1 (stereo not shown) [Example 156] | 49% | 186 | – | > 10000 | 58% | 97 | –
20 | Nc1ccccc1NC(=O)c1ccc(CC(=O)N2CCC(CNC3CC3c3ccc(F)cc3)CC2)cc1 (stereo not shown) [Example 147, N-(2-aminophenyl)-4-(2-(4-(((2-(4-fluorophenyl)cyclopropyl)amino)methyl)piperidin-1-yl)-2-oxoethyl)benzamide TFA Salt] | < 5% | 32 | 29 | > 10000 | 48% | – | –
21 | Cc1noc(C)c1-c1ccc(C2CC2NCC2CCN(Cc3ccc(C(=O)Nc4ccccc4N)cc3)CC2)cc1 (stereo not shown) [Example 143, N-(2-aminophenyl)-4-((4-(((2-(4-(3,5-dimethylisoxazol-4-yl)phenyl)cyclopropyl)amino)methyl)piperidin-1-yl)methyl)benzamide TFA Salt] | 50% | 37 | 102 | > 10000 | 37% | – | –
22 | O=C(NO)c1csc(CCCN2CCC(CNC3CC3c3ccccc3)CC2)n1.O=C(O)C(F)(F)F (stereo not shown) [Example 110, N-hydroxy-2-(3-(4-(((2-phenylcyclopropyl)amino)methyl)piperidin-1-yl)propyl)thiazole-4-carboxamide TFA Salt] | 95% | – | – | > 10000 | 88% | > 10000 | 26
23 | Nc1ccccc1NC(=O)c1ccc(CCCn2cnc(CNC3CC3c3ccccc3)c2)cc1 (stereo not shown) [Example 136, N-(2-aminophenyl)-4-(3-(4-(((2-phenylcyclopropyl)amino)methyl)-1H-imidazol-1-yl)propyl)benzamide TFA Salt] | 3% | 570 | 174 | > 10000 | 4% | – | –
